Reference: patent US11504382B2, “Tricyclic inhibitors of Hepatitis B virus” (Antios Therapeutics, Inc., priority 2018, dated 2022)
pEC50: −log10 of the molar value.

System: HBV
Assay: HBV inhibition assay in HepAD38 cells (extracellular HBV DNA by direct qPCR)
Assay type: cell-based, Hepatitis B virus
Details: Hepatitis B virus, 96 hours; for pEC50: 8-point dose-response curve, read-out: HBV inh EC50
[1] = relative to non-treated reference, read-out: Anti HBV Activity (conc μM)

SMILES	pEC50	inhibition at 0.1 µM [1] [%]	inhibition at 0.05 µM (0.05 μM, relative to non-treated reference, read-out: Anti HBV Activity (conc μM)) [%]
Cc1cc(NC(=O)c2c3c(cn2C)S(=O)(=O)NC2CN(c4cccnc4)CC2CO3)ccc1F (stereo not drawn) [Example E48, cis-N-(4-fluoro-3-methylphenyl)-7-methyl-2-(pyridin-3-yl)-2,3,3a,4,10,10a-hexahydro-1H,7H-dipyrrolo[3,4-b:3′,4′-f][1,4,5]oxathiazocine-8-carboxamide 5,5-dioxide]	> 6.00	–	–
Cn1cc2c(c1C(=O)Nc1cc(F)c(F)c(F)c1)OCC1CCCC1NS2(=O)=O (racemic) [Example E28, cis (5aR,8aS and 5aS,8aR)-2-methyl-N-(3,4,5-trifluorophenyl)-5a,6,7,8,8a,9-hexahydro-2H,5H-cyclopenta[f]pyrrolo[3,4-b][1,4,5]oxathiazocine-1-carboxamide 4,4-dioxide]	> 6.00	> 50	–
CC(C)NS(=O)(=O)N1CC2COc3c(cn(C)c3C(=O)Nc3cc(F)c(F)c(F)c3)S(=O)(=O)NC2C1 (racemic) [Example E21, cis-2-(N-isopropylsulfamoyl)-7-methyl-N-(3,4,5-trifluorophenyl)-2,3,3a,4,10,10a-hexahydro-1H,7H-dipyrrolo[3,4-b:3′,4′-f][1,4,5]oxathiazocine-8-carboxamide 5,5-dioxide]	> 6.00	> 50	–
Cn1cc2c(c1C(=O)Nc1cc(F)c(F)c(F)c1)OC[C@H]1CN(C(=O)[C@@H](N)CO)C[C@H]1NS2(=O)=O (mixture of isomers) [Example E68, cis-2-(L-seryl)-7-methyl-N-(3,4,5-trifluorophenyl)-2,3,3a,4,10,10a-hexahydro-1H,7H-dipyrrolo[3,4-b:3′,4′-f][1,4,5]oxathiazocine-8-carboxamide 5,5-dioxide]	–	< 50	–
Cn1cc2c(c1C(=O)Nc1cc(F)c(F)c(F)c1)OCC1CN(C(=O)c3nccs3)CC1NS2(=O)=O (stereo not drawn) [Example E58, cis-7-methyl-2-(thiazole-2-carbonyl)-N-(3,4,5-trifluorophenyl)-2,3,3a,4,10,10a-hexahydro-1H,7H-dipyrrolo[3,4-b:3′,4′-f][1,4,5]oxathiazocine-8-carboxamide 5,5-dioxide]	> 6.00	–	> 50
Cc1cc(NC(=O)c2c3c(cn2C)S(=O)(=O)N[C@H]2CN(C(=O)c4cocn4)C[C@H]2CO3)ccc1F [Example E104, (3aR,10aR)—N-(4-fluoro-3-methylphenyl)-7-methyl-2-(oxazole-4-carbonyl)-2,3,3a,4,10,10a-hexahydro-1H,7H-dipyrrolo[3,4-b:3′,4′-f][1,4,5]oxathiazocine-8-carboxamide 5,5-dioxide]	> 6.00	–	–
CCOC(=O)N1CC2COc3c(cn(C)c3C(=O)Nc3ccc(F)c(C)c3)S(=O)(=O)NC2C1 (racemic) [Example E14, Cis-Ethyl 8-((4-fluoro-3-methylphenyl)carbamoyl)-7-methyl-3a,4,10,10a-tetrahydro-1H,7H-dipyrrolo[3,4-b:3′,4′-f][1,4,5]oxathiazocine-2(3H)-carboxylate 5,5-dioxide]	> 6.00	> 50	–
Cc1nnc(C(=O)N2C[C@H]3COc4c(cn(C)c4C(=O)Nc4cc(F)c(F)c(F)c4)S(=O)(=O)N[C@H]3C2)o1 [Example E97, (3aR,10aR)-7-methyl-2-(5-methyl-1,3,4-oxadiazole-2-carbonyl)-N-(3,4,5-trifluorophenyl)-2,3,3a,4,10,10a-hexahydro-1H,7H-dipyrrolo[3,4-b:3′,4′-f][1,4,5]oxathiazocine-8-carboxamide 5,5-dioxide]	> 6.00	–	–
Cc1noc(C(=O)N2C[C@H]3COc4c(cn(C)c4C(=O)Nc4ccc(F)c(C)c4)S(=O)(=O)N[C@H]3C2)n1 [Example E103, (3aR,10aR)—N-(4-fluoro-3-methylphenyl)-7-methyl-2-(3-methyl-1,2,4-oxadiazole-5-carbonyl)-2,3,3a,4,10,10a-hexahydro-1H,7H-dipyrrolo[3,4-b:3′,4′-f][1,4,5]oxathiazocine-8-carboxamide 5,5-dioxide]	> 6.00	–	–
